Source: patent publication US6498125B2, “Pyridine ketones useful as herbicides” (Syngenta Participations AG, priority 1998, dated 2002)

How the values were obtained:
[1] = test system: Monocotyledonous and dicotyledonous test plants; assay: Example B2: post-emergence herbicidal action, 2 kg of AS/ha; format: in vivo; set-up: key: 1 = complete damage, 9 = no effect; details: 4- to 6-leaf stage, about 18 days; for post-emergence action rating, Avena: test plant Avena; for post-emergence action rating, Setaria: test plant Setaria; for post-emergence action rating, Sinapis: test plant Sinapis; for post-emergence action rating, Solanum: test plant Solanum; for post-emergence action rating, Stellaria: test plant Stellaria
Description: Monocotyledonous and dicotyledonous test plants are grown in plastic pots with standard soil in a greenhouse and, in the 4- to 6-leaf stage, are sprayed with an aqueous suspension of the test substances of the formula 1, prepared from a 25% wettable powder (Example F3, b) according to WO 97134485) or with an emulsion of the test substances of the formula I, prepared from a 25% emulsion concentrate (Example F1, c) according to WO 97/34485), corresponding to a dosage of 2 kg of AS/ha (500 l of water/ha). The test plants are then grown further under optimum conditions in a greenhouse. After a test period of about 18 days, the test is evaluated with a nine-level scale of rating (1=complete damage, 9=no effect). Ratings of 1 to 4 (in particular 1 to 3) mean good to very good herbicidal action. In this test, the compounds of the formula I show strong herbicidal action.

[2] = test system: Monocotyledonous and dicotyledonous test plants; assay: Example B1: pre-emergence herbicidal action, 2 kg of AS/ha; format: in vivo; details: 3 weeks, scale 1-9; for pre-emergence action rating, Avena: test plant Avena; for pre-emergence action rating, Cyperus: test plant Cyperus; for pre-emergence action rating, Setaria: test plant Setaria; for pre-emergence action rating, Sinapis: test plant Sinapis; for pre-emergence action rating, Solanum: test plant Solanum; for pre-emergence action rating, Stellaria: test plant Stellaria
Description: Monocotyledonous and dicotyledonous test plants are sown in standard soil in plastic pots. Immediately after sowing, the test substances are sprayed on (500 l of water/ha) as an aqueous suspension (prepared from a 25% wettable powder (Example F3, b) according to WO 97/34485) or emulsion (prepared from a 25% emulsion concentrate (Example F1, c)), corresponding to a dosage of 2 kg of AS/ha. The test plants are then grown under optimum conditions in a greenhouse. After a test period of 3 weeks, the test is evaluated with a nine-level scale of ratings (1=complete damage, 9=no effect). Ratings of 1 to 4 (in particular 1 to 3) mean good to very good herbicidal action.

| SMILES | post-emergence action rating, Avena ([1]; scale 1-9) | post-emergence action rating, Setaria ([1]; scale 1-9) | post-emergence action rating, Sinapis ([1]; scale 1-9) | post-emergence action rating, Solanum ([1]; scale 1-9) | post-emergence action rating, Stellaria ([1]; scale 1-9) | pre-emergence action rating, Avena [2] | pre-emergence action rating, Cyperus [2] | pre-emergence action rating, Setaria [2] | pre-emergence action rating, Sinapis [2] | pre-emergence action rating, Solanum [2] | pre-emergence action rating, Stellaria [2] | post-emergence action rating, Avena ([1]; scale 1-9, listed as 1.010) | post-emergence action rating, Stellaria ([1]; scale 1-9, listed as 1.010) |
| --- | --- | --- | --- | --- | --- | --- | --- | --- | --- | --- | --- | --- | --- |
| O=C(C1=C(O)C2CCC(C2)C1=O)c1ccc(C(F)(F)F)nc1 (stereo not shown) [Compound 1.001] | 3 | 2 | 1 | 2 | 2 |  |  |  |  |  |  |  |  |
| O=C(C1=C(O)C2CCC(C2)C1=O)c1ccc(C(F)(F)F)nc1 (stereo not shown) [Compound 1.01] |  | 2 | 1 | 2 |  | 2 | 1 | 1 | 1 | 1 | 2 | 2 | 4 |
| Cc1nc(C(F)(F)F)ccc1C(=O)C1=C(OC(=O)C(C)(C)C)C2CCC(C2)C1=O (stereo not shown) [Compound 1.4] | 2 | 2 | 1 | 2 | 2 | 2 | 1 | 1 | 2 | 1 | 2 |  |  |
| O=C(C1=C(O)C2CCC(C2)C1=O)c1ccc(C(F)(F)F)nc1C(F)F (stereo not shown) [Compound 1.005] | 2 | 2 | 1 | 2 | 2 | 4 | 1 | 1 | 1 | 1 | 1 |  |  |
| Cc1c(C(=O)C2=C(O)C3CCC(C3)C2=O)ccc(C(F)(F)F)[n+]1[O-] (stereo not shown) [Compound 1.06] | 2 | 1 | 1 | 1 | 2 | 2 | 1 | 1 | 2 | 1 | 1 |  |  |
| O=C(C1=C(O)C2CCC(C2)C1=O)c1ccc(C(F)(F)F)nc1C(F)(F)F (stereo not shown) [Compound 1.008] | 2 | 2 | 1 | 2 | 2 |  |  |  |  |  |  |  |  |
| Cc1nc(C(F)(F)F)ccc1C(=O)C1=C(O)C2CCC(C2)C1=O (stereo not shown) [Compound 1.009, 4-hydroxy-3-(2-methyl-6-trifluoromethylpyridine-3-carbonyl)bicyclo[3.2.1]oct-3-en-2-one] | 1 | 1 | 1 | 1 | 2 | 2 | 1 | 1 | 2 | 1 | 2 |  |  |
| CC(C)c1nc(C(F)(F)F)ccc1C(=O)C1=C(O)C2CCC(C2)C1=O (stereo not shown) [Compound 1.011] | 2 | 2 | 2 | 2 | 2 | 2 | 1 | 1 | 1 | 1 | 1 |  |  |
| CCCc1nc(C(F)(F)F)ccc1C(=O)C1=C(O)C2CCC(C2)C1=O (stereo not shown) [Compound 1.012] | 3 | 2 | 1 | 2 | 2 |  |  |  |  |  |  |  |  |
| COCc1nc(C(F)(F)F)ccc1C(=O)C1=C(O)C2CCC(C2)C1=O (stereo not shown) [Compound 1.021] | 2 | 4 | 1 | 2 | 2 | 4 | 2 | 1 | 1 | 1 | 3 |  |  |
| COCCc1nc(C(F)(F)F)ccc1C(=O)C1=C(O)C2CCC(C2)C1=O (stereo not shown) [Compound 1.023] | 2 | 2 | 1 | 2 | 2 | 2 | 2 | 2 | 1 | 1 | 2 |  |  |
| CS(=O)(=O)Cc1nc(C(F)(F)F)ccc1C(=O)C1=C(O)C2CCC(C2)C1=O (stereo not shown) [Compound 1.026] | 3 | 1 | 1 | 1 | 2 |  |  |  |  |  |  |  |  |
| CCN(CC)C(=O)OC1=C(C(=O)c2ccc(C(F)(F)F)nc2C)C(=O)C2CCC1C2 (stereo not shown) [Compound 1.41] | 1 | 1 | 1 | 1 | 1 | 2 | 1 | 1 | 1 | 1 | 1 |  |  |
| O=C(C1=C(O)C2CCC(C2)C1=O)c1ccc(C(F)(F)F)nc1C1CC1 (stereo not shown) [Compound 1.042] | 2 | 2 | 1 | 2 | 2 | 4 | 2 | 2 | 1 | 1 | 4 |  |  |
| COc1nc(C(F)(F)F)ccc1C(=O)C1=C(O)C2CCC(C2)C1=O (stereo not shown) [Compound 1.043] | 2 | 2 | 1 | 2 | 2 | 4 | 2 | 1 | 2 | 1 | 2 |  |  |
| C#CCOc1nc(C(F)(F)F)ccc1C(=O)C1=C(O)C2CCC(C2)C1=O (stereo not shown) [Compound 1.048] | 2 | 1 | 1 | 1 | 2 |  |  |  |  |  |  |  |  |
| Cc1cc(C(F)(F)F)ncc1C(=O)C1=C(O)C2CCC(C2)C1=O (stereo not shown) [Compound 1.362] | 3 | 2 | 1 | 2 | 2 |  |  |  |  |  |  |  |  |
| CCc1nc(C(F)(F)F)ccc1C(=O)C1=C(O)C(C)(C)ON(C)C1=O [Compound 4.01] | 3 | 3 | 2 | 2 | 2 |  |  |  |  |  |  |  |  |
| CCC1=CC(C)(C)C(O)=C(C(=O)c2ccc(C(F)(F)F)nc2C)C1=O [Compound 5.081] | 3 | 2 | 1 | 1 | 2 |  |  |  |  |  |  |  |  |
| Cc1nc(C(F)(F)F)ccc1C(=O)C1=C(O)C(C)(C)C=CC1=O [Compound 5.085] | 3 | 2 | 1 | 2 | 2 |  |  |  |  |  |  |  |  |
